{"source": "patent US4650888A", "about": "“Pentaerythritol derivative” (Chugai Seiyaku Kabushiki Kaisha, priority 1984, dated 1987)", "test_system": "Shay rats (pylorus-ligated, gastric ulcers in the forestomach)", "assay": "Anti-ulcer activity on Shay rats", "assay_type": "in vivo", "details": "male SD rats, 300 mg/kg orally, 16 hours", "method": "Anti-ulcer activity on Shay rats:\nMale SD rats (180-200 g) were deprived of food for 48 hours and had free access to water. Under ether anesthesia the abdomen of each rat was incised and the pylorus ligated. Concurrently the test complex was orally administered and the abdomen was closed. The animals were killed 16 hours later by an overdose, and the stomach of each rat removed. The stomach was incised along the greater curvature and examined for gastric ulcers developed in the forestomach. The damaged mucosa in shay ulcers was measured under a dissecting microscope (x10) with a square grid, summed, and arbitrarily classified into 5 degrees by an erosion index."}
{"smiles": "O=S(=O)([O-])OCC(COCC(COS(=O)(=O)[O-])(COS(=O)(=O)[O-])COS(=O)(=O)[O-])(COS(=O)(=O)[O-])COS(=O)(=O)[O-].[Na+].[Na+].[Na+].[Na+].[Na+].[Na+]", "note": "[Na salt, Sodium salt of sulfuric acid ester of dipentaerythritol]", "values": [{"measurement": "Erosion Index (mean ± SE)", "result": "1.4 ± 0.2"}, {"measurement": "Percent Inhibition (%)", "setting": "versus control (H2O)", "result": 58.8, "unit": "%"}]}
